For orientation: IC50 means the point on the concentration scale where inhibition reaches its midpoint. Read a high IC50 as a need for much substance.

The results in this text go back to ChEMBL document CHEMBL1126534, “Role of sulfonamide moiety in non-prostanoid txa2 receptor antagonist kt2-962 : modifications of this moiety and the resulting activities” (Bioorg Med Chem Lett, 1993).

The target of assay [1] is T1, Thromboxane A2 receptor (Rattus norvegicus, UniProt P34978).
T1 sequence (P34978 whole entry): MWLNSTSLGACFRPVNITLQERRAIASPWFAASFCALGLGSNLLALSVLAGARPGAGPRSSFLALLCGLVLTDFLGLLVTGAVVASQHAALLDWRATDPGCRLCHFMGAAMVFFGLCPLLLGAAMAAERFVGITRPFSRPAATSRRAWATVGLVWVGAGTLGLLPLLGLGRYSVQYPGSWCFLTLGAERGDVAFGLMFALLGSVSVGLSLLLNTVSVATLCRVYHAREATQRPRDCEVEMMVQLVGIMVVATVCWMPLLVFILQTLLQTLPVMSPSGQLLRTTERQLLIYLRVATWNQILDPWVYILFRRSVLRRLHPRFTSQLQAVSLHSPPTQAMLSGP
Description: Tested for antagonistic activity on isolated rat thoracic aorta (thromboxane A2 receptor) precontracted by U-46619 (3 x 10 e-8 M). The class given is functional, tissue-based.

For the next assay, the species on record is Oryctolagus cuniculus. The experiment in a line: Tested for 50% maximal aggregation of rabbit platelet-rich plasma induced by 4 x 10 e-6 M U-46619. In kind it is functional.
Assay [2] addresses T1, Thromboxane A2 receptor. The experiment in a line: Tested for antagonistic activity on isolated rat thoracic aorta (TXA2 receptor) precontracted by U-46619 (3 x 10 e-8 M). The class given is functional, tissue-based.

A value given as a limit tells only on which side of the number the result lay.

`CC(C)c1ccc2c(CCCCNS(=O)(=O)c3ccc(Cl)cc3)cc(S(=O)(=O)O)c-2cc1` had an IC50 at Thromboxane A2 receptor [1] of 0.0009 µM. The same measure, in the same setting: the same measure for `CC(C)c1ccc2c(CCC/C=N/N=C(\S)Nc3ccc(Cl)cc3)cc(C(=O)O)c-2cc1`: > 100 µM; for `CC(C)c1ccc2c(CCC/C=N/NC(=O)Nc3ccc(Cl)cc3)cc(C(=O)O)c-2cc1`: > 100 µM; for `CC(C)c1ccc2c(CCCCCS(=O)(=O)Nc3ccccc3)cc(C(=O)O)c-2cc1`: 1.5 µM. `CC(C)c1ccc2c(CCC/C=N\NC(=O)Nc3ccccc3)cc(C(=O)O)c-2cc1`: the IC50 is > 1 mM in the assay filed under Oryctolagus cuniculus and > 100 µM on Thromboxane A2 receptor [1].

For the molecule `CC(C)c1ccc2c(CNC(=O)CNC(=O)c3ccccc3)cc(C(=O)O)c-2cc1`, the IC50 is > 1 mM in the assay filed under Oryctolagus cuniculus and > 100 µM on Thromboxane A2 receptor [2].

As to `CC(C)c1ccc2c(CCCCS(=O)(=O)Nc3ccc(Cl)cc3)cc(C(=O)O)c-2cc1`, the IC50 in the assay filed under Oryctolagus cuniculus is > 1 mM; on Thromboxane A2 receptor [1] it was 2.6 µM. In the same order, the values of `CC(C)c1ccc2c(CCCC(=O)NS(=O)(=O)c3ccc(Cl)cc3)cc(S(=O)(=O)O)c-2cc1` are 0.056 mM and 54 µM. In the same order, the values of `CC(C)c1ccc2c(CCCCS(=O)(=O)Nc3ccc(Cl)cc3)cc(S(=O)(=O)O)c-2cc1` are > 1 mM and 0.22 µM. On to `CC(C)c1ccc2c(CCCC(=O)NS(=O)(=O)c3ccccc3)cc(C(=O)O)c-2cc1`, for which the half-inhibitory concentration (IC50) at Thromboxane A2 receptor [1] is > 100 µM. Still for that read-out and setting: the same measure for `CC(C)c1ccc2c(CCCS(=O)(=O)Nc3ccc(Cl)cc3)cc(S(=O)(=O)O)c-2cc1`: 0.86 µM; for `CC(C)c1ccc2c(CCCCS(=O)(=O)Nc3ccccc3)cc(C(=O)O)c-2cc1`: 8.7 µM.

As for `CC(C)c1ccc2c(CNC(=O)CNS(=O)(=O)c3ccccc3)cc(C(=O)O)c-2cc1`, the results for the IC50 in the assay listed under Oryctolagus cuniculus and against Thromboxane A2 receptor [1] were > 1 mM and > 100 µM, respectively. Turning to `CC(C)c1ccc2c(CNC(=O)CNS(=O)(=O)c3ccc(Cl)cc3)cc(C(=O)O)c-2cc1`, the IC50 against Thromboxane A2 receptor [1] is > 100 µM. Regarding `CC(C)c1ccc2c(CNC(=O)CNC(=O)c3ccc(Cl)cc3)cc(C(=O)O)c-2cc1`, the half-inhibitory concentration (IC50) at Thromboxane A2 receptor [1] is > 100 µM. As to `CC(C)c1ccc2c(CCCC(=O)NS(=O)(=O)c3ccc(Cl)cc3)cc(C(=O)O)c-2cc1`, the results for the half-maximal inhibitory concentration (IC50) in the assay listed under Oryctolagus cuniculus and against Thromboxane A2 receptor [1] were > 1 mM and 19 µM, respectively.

On Thromboxane A2 receptor [1], `CC(C)c1ccc2c(CCCC(=O)NS(=O)(=O)c3ccccc3)cc(S(=O)(=O)O)c-2cc1` had an IC50 of 65 µM. Same read-out and setting: the same measure for `CC(C)c1ccc2c(CCCCCS(=O)(=O)Nc3ccc(Cl)cc3)cc(S(=O)(=O)O)c-2cc1`: 0.86 µM; for `CC(C)c1ccc2c(CCCS(=O)(=O)Nc3ccccc3)cc(S(=O)(=O)O)c-2cc1`: 8.7 µM. In turn, `CC(C)c1ccc2c(CCCCCS(=O)(=O)Nc3ccccc3)cc(S(=O)(=O)O)c-2cc1` yielded an IC50 on Thromboxane A2 receptor [1] of 1.4 µM.

For `CC(C)c1ccc2c(CCC/C=N/N=C(\S)Nc3ccccc3)cc(C(=O)O)c-2cc1`, the IC50 in the assay filed under Oryctolagus cuniculus was > 1 mM; on Thromboxane A2 receptor [1], 590 µM. On Thromboxane A2 receptor [1], `CC(C)c1ccc2c(CCCS(=O)(=O)Nc3ccc(Cl)cc3)cc(C(=O)O)c-2cc1` registered an IC50 of 9.1 µM.

In the case of `CC(C)c1ccc2c(CCCCCS(=O)(=O)Nc3ccc(Cl)cc3)cc(C(=O)O)c-2cc1`, the IC50 at Thromboxane A2 receptor [1] is 1.7 µM.

`CC(C)c1ccc2c(CCCCS(=O)(=O)Nc3ccccc3)cc(S(=O)(=O)O)c-2cc1`: at Thromboxane A2 receptor [1], 1.5 µM corresponded to half-maximal inhibition (IC50).

Turning to `CC(C)c1ccc2c(CCCS(=O)(=O)Nc3ccccc3)cc(C(=O)O)c-2cc1`, at Thromboxane A2 receptor [1], it took 12 µM to reach half-maximal inhibition (IC50).

At Thromboxane A2 receptor [1], `O=C(O)COc1ccc(CCNS(=O)(=O)c2ccccc2)cc1` [SULOTROBAN] had an IC50 of 1.5 µM.
